Assay results as given in US11691962B2 (eXIthera Pharmaceuticals, Inc., priority 2018, dated 2023).

Assays:
Format in all cases: biochemical
[1] = test system: Trypsin; assay: Dose response assay for protease inhibitors: trypsin; conditions: selectivity, trypsin over Factor XIa
Description: (§1) • Assay buffer: 20 mM Hepes, pH 7.4; 150 mM NaCl; 0.02% Tween 20 • Compounds: 10 mM stocks in DMSO • Substrate: 20 mM Glp-Pro-Arg-AMC, 25 mg/2.3 mL H2O (store at +4° C.) [Factor XIa, thrombin, and trypsin] • 20 mM Pro-Phe-Arg-AMC (Bachem I-1295), 25 mg/2.2 mL H2O • or Boc-Leu-Gly-Arg-AMC (Bachem I-1105), 25 mg/2.07 mL H2O • (store at +4° C.) [Factor Xa] • Enzyme: Factor XIa; 0.25 μM in 50% glycerol (20 μg/mL) • Trypsin; 0.2 μM in 50% glycerol (4.8 μg/mL) • Thrombin; 0.2 μM in 50% glycerol (7.34 μg/mL) • Factor Xa; 0.2 μM in 50% glycerol (9.2 μg/mL) • These stocks are aliquoted (˜100 μL/aliquot) and stored at −20° C. Methods: • 1. Dilute the substrate to 100 μM in assay buffer (30 μL/6 mL). The enzyme is diluted to 0.5 nM just prior to use (12 μL/6 mL for Factor XIa; 15 μL/6 mL for all of the rest.) • 2. Pipette 50 μL of substrate into each well of the 96 well (12×8) microtiter plate. (Column 1 is used as the 100% activity control and receives no compound, and Column 12 is the blank and receives no enzyme.) Add an additional 46 μL to column 2. • 3. Pipette 4 μL of each compound into the appropriate well in column 2 of the plate (unknowns assayed in triplicate, standard assayed in duplicate). The final compound concentration will be […] of the stock. • 4. Serially two-fold dilute the compound by mixing the sample in column 2, removing 50 μL to the next well (column 3), mix and remove to column 4, etc. until column 11. After mixing column 11, remove 50 μL and discard. • 5. Pipette 50 μL of buffer into column 12. Initiate the reaction by adding 50 μL of enzyme solution to each well of columns 1-11 as rapidly as possible. • 6. Read the plate in a spectrophotometer (SpectraMax) at 30° C., wherein each well is measured every 60 s for 30 min. For Factor Xa assays, each well is measured every 1 min for a total of 60 min. • 7. For Factor XIa assays, the compounds are assayed, in duplicate, at 3 different starting concentrations, 20, 2, and 0.2 μM; 1:10, 1:100, and 1:1000 dilution of 10 mM stock or at 2, 0.2, and 0.02 μM; 1:100, 1:1000, and 1:10,000 dilution of 10 mM stock. Data for each concentration are combined for graphing and data fitting. • 8. Data can be used both for estimation of IC50 and for estimation of Kon.

[2] = target: Thrombin (Homo sapiens (Human), UniProt P00734); assay: Dose response assay for protease inhibitors: thrombin; conditions: selectivity, thrombin over Factor XIa
Description: as §1

[3] = target: Factor XIa (Homo sapiens (Human), UniProt P03951); assay: Factor XIa enzyme inhibition assay (dose response, fluorogenic AMC substrate); conditions: read-out: hFXIa IC50
In short: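 Fluorogenic progress curves (30 min, 1-min reads, 30° C) were recorded for 0.25 nM FXIa cleaving 50 μM Glp-Pro-Arg-AMC in Hepes pH 7.4 buffer with NaCl and Tween 20. Compounds were serially two-fold diluted, and IC50 was fitted with a Hill equation.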

[4] = target: Factor Xa (Homo sapiens (Human), UniProt P00742); assay: Dose response assay for protease inhibitors: Factor Xa; conditions: selectivity, Factor Xa over Factor XIa
Description: as §1

Sequence of Factor Xa (P00742 235-488): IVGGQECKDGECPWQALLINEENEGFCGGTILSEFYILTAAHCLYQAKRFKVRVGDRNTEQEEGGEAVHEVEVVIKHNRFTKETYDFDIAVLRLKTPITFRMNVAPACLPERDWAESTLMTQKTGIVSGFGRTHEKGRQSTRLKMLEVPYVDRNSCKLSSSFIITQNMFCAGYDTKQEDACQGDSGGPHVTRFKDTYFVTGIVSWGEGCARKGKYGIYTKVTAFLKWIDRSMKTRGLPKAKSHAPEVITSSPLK
Sequence of Factor Xa (P00742 41-179 partner): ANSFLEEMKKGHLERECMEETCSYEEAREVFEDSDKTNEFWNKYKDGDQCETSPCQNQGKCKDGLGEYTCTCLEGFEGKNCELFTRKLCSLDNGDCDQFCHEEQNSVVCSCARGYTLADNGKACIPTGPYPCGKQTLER
Sequence of Factor XIa (P03951 388-625): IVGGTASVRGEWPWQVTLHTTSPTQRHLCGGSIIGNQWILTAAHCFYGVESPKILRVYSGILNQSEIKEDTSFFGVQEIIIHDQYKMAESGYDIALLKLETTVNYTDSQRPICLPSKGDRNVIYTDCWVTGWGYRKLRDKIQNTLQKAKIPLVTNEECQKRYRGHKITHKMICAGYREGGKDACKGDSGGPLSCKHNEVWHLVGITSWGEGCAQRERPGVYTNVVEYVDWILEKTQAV
Sequence of Factor XIa (P03951 19-387 partner): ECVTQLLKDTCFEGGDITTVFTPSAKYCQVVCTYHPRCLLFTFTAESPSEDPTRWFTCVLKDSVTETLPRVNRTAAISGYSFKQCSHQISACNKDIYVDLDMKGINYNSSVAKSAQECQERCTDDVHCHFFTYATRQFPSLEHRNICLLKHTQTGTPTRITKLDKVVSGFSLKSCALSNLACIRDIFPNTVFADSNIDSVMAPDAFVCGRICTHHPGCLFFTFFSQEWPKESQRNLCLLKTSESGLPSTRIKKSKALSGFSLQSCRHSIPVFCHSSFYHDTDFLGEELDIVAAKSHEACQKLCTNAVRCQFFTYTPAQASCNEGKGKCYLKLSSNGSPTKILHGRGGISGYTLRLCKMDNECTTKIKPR

Ratio: Thrombin/FXIa [2]	IC50 [3] [µM]	Ratio: FXa/FXIa [4]	Molecule	Ratio: Trypsin/FXIa [1]
H (“H” indicates 101-1000)	< 0.01	H (“H” indicates 101-1000)	CC[C@@H](NC(=O)N1C(=O)[C@H](Cc2ccnc(N)c2)[C@H]1C(=O)N(C)c1ccn(C)n1)c1ccc(C)c(Cl)c1 [Compound 1-129, (2S,3R)-3-((2-aminopyridin-4-yl)methyl)-N2-(1-methyl-1H-pyrazol-3-yl)-N1-((R)-1-(3-chloro-4-methylphenyl)propyl)-N2-methyl-4-oxoazetidine-1,2-dicarboxamide]	G (“G” indicates 1-100)
G (“G” indicates 1-100)	< 0.01	H (“H” indicates 101-1000)	CN(C(=O)[C@@H]1[C@@H](Cc2ccnc(N)c2)C(=O)N1C(=O)NC(c1cccc(Cl)c1)C(F)(F)F)c1ccn(C)n1 (stereo in doubt) [Compound 1-38, (2S,3R)-3-((2-aminopyridin-4-yl)methyl)-N2-(1-methyl-1H-pyrazol-3-yl)-N1-((R)-1-(3-chlorophenyl)-2,2,2-trifluoroethyl)-N2-methyl-4-oxoazetidine-1,2-dicarboxamide]	G (“G” indicates 1-100)
H (“H” indicates 101-1000)	< 0.01	I (“I” indicates > 500)	CC[C@@H](NC(=O)N1C(=O)[C@H](Cc2ccnc(N)c2)[C@H]1C(=O)N(C)c1nccn1C)c1cc(F)c(F)c(F)c1 [Compound 1-193, (2S,3R)-3-((2-aminopyridin-4-yl)methyl)-N2-(1-methyl-1H-imidazol-2-yl)-N1-((R)-1-(3,4,5-trifluorophenyl)propyl)-N2-methyl-4-oxoazetidine-1,2-dicarboxamide]	G (“G” indicates 1-100)
H (“H” indicates 101-1000)	< 0.01	H (“H” indicates 101-1000)	CC[C@@H](NC(=O)N1C(=O)[C@H](Cc2ccnc(N)c2)[C@H]1C(=O)N(C)c1nccn1C)c1cc(C)ccc1Cl [Compound 1-101, (2S,3R)-3-((2-aminopyridin-4-yl)methyl)-N2-(1-methyl-1H-imidazol-2-yl)-N1-((R)-1-(2-chloro-5-methylphenyl)propyl)-N2-methyl-4-oxoazetidine-1,2-dicarboxamide]	G (“G” indicates 1-100)
H (“H” indicates 101-1000)	< 0.01	H (“H” indicates 101-1000)	(2S,3R)-3-((2-aminopyridin-4-yl)methyl)-N2-(1-methyl-1H-pyrazol-3-yl)-N1-((S)-1-(3-chlorophenyl)ethyl)-N2-methyl-4-oxoazetidine-1,2-dicarboxamide [Compound 1-33]	G (“G” indicates 1-100)
G (“G” indicates 1-100)	0.01 to 0.1	H (“H” indicates 101-1000)	CN(C(=O)[C@@H]1[C@@H](Cc2ccnc(N)c2)C(=O)N1C(=O)NCc1cccc(Cl)c1)c1ccn(C)n1 [Compound 1-26, (2S,3R)-3-((2-aminopyridin-4-yl)methyl)-N2-(1-methyl-1H-pyrazol-3-yl)-N1-((3-chlorophenyl)methyl)-N2-methyl-4-oxoazetidine-1,2-dicarboxamide]	G (“G” indicates 1-100)
H (“H” indicates 101-1000)	< 0.01	I (“I” indicates > 500)	CC[C@@H](NC(=O)N1C(=O)[C@H](Cc2cc(C)nc(N)c2)[C@H]1C(=O)N(C)c1cnn(C)c1)c1cc(F)ccc1F [Compound 1-182, (2S,3R)-3-((2-amino-6-methylpyridin-4-yl)methyl)-N2-(1-methyl-1H-pyrazol-4-yl)-N1-((R)-1-(2,5-difluorophenyl)propyl)-N2-methyl-4-oxoazetidine-1,2-dicarboxamide]	G (“G” indicates 1-100)
H (“H” indicates 101-1000)	< 0.01	I (“I” indicates > 500)	CC[C@@H](NC(=O)N1C(=O)[C@H](Cc2ccnc(N)c2)[C@H]1C(=O)N(C)c1ccn(C)n1)c1cc(C)ccc1F [Compound 1-125, (2S,3R)-3-((2-aminopyridin-4-yl)methyl)-N2-(1-methyl-1H-pyrazol-3-yl)-N1-((R)-1-(2-fluoro-5-methylphenyl)propyl)-N2-methyl-4-oxoazetidine-1,2-dicarboxamide]	G (“G” indicates 1-100)
H (“H” indicates 101-1000)	< 0.01	H (“H” indicates 101-1000)	CC[C@@H](NC(=O)N1C(=O)[C@H](Cc2ccnc(N)c2)[C@H]1C(=O)N(C)c1nccn1C)c1ccc(C)c(C)c1 [Compound 1-100, (2S,3R)-3-((2-aminopyridin-4-yl)methyl)-N2-(1-methyl-1H-imidazol-2-yl)-N1-((R)-1-(3,4-dimethylphenyl)propyl)-N2-methyl-4-oxoazetidine-1,2-dicarboxamide]	G (“G” indicates 1-100)
I (“I” indicates > 500)	< 0.01	I (“I” indicates > 500)	CC[C@@H](NC(=O)N1C(=O)[C@H](Cc2cc(C)nc(N)c2)[C@H]1C(=O)N(C)c1ccnn1C)c1cccc(F)c1F [Compound 1-151, (2S,3R)-3-((2-amino-6-methylpyridin-4-yl)methyl)-N2-(1-methyl-1H-pyrazol-5-yl)-N1-((R)-1-(2,3-difluorophenyl)propyl)-N2-methyl-4-oxoazetidine-1,2-dicarboxamide]	G (“G” indicates 1-100)
G (“G” indicates 1-100)	0.01 to 0.1	H (“H” indicates 101-1000)	CC[C@@H](NC(=O)N1C(=O)[C@H](Cc2ccnc(N)c2)[C@H]1C(=O)N(C)c1cnn(C)c1)C1CCCCC1 [Compound 1-69, (2S,3R)-3-((2-aminopyridin-4-yl)methyl)-N2-(1-methyl-1H-pyrazol-4-yl)-N1-((R)-1-cyclohexylpropyl)-N2-methyl-4-oxoazetidine-1,2-dicarboxamide]	G (“G” indicates 1-100)
G (“G” indicates 1-100)	< 0.01	H (“H” indicates 101-1000)	CC[C@@H](NC(=O)N1C(=O)[C@H](Cc2ccnc(N)c2)[C@H]1C(=O)N(C)c1cn(C)cn1)c1cccc(Cl)c1 [Compound 1-25, (2S,3R)-3-((2-aminopyridin-4-yl)methyl)-N2-(1-methyl-1H-imidazol-4-yl)-N1-((R)-1-(3-chlorophenyl)propyl)-N2-methyl-4-oxoazetidine-1,2-dicarboxamide]	G (“G” indicates 1-100)
H (“H” indicates 101-1000)	< 0.01	I (“I” indicates > 500)	CC[C@@H](NC(=O)N1C(=O)[C@H](Cc2ccnc(N)c2)[C@H]1C(=O)N(C)c1ccn(C)n1)c1cccc(F)c1F [Compound 1-134, (2S,3R)-3-((2-aminopyridin-4-yl)methyl)-N2-(1-methyl-1H-pyrazol-3-yl)-N1-((R)-1-(2,3-difluorophenyl)propyl)-N2-methyl-4-oxoazetidine-1,2-dicarboxamide]	G (“G” indicates 1-100)
H (“H” indicates 101-1000)	0.01 to 0.1	I (“I” indicates > 500)	CC[C@@H](NC(=O)N1C(=O)[C@H](Cc2cc(C)nc(N)c2)[C@H]1C(=O)N(C)c1nccn1C)c1cc(C)ccc1F [Compound 1-112, (2S,3R)-3-((2-amino-6-methylpyridin-4-yl)methyl)-N2-(1-methyl-1H-imidazol-2-yl)-N1-((R)-1-(2-fluoro-5-methylphenyl)propyl)-N2-methyl-4-oxoazetidine-1,2-dicarboxamide]	G (“G” indicates 1-100)
